In US12097212B2, “Use of cationic steroidal antimicrobial compounds to deactivate coronavirus” (Brigham Young University, priority 2020, dated 2024):
Like-named read-outs stand apart in the source and are kept apart here. Marks after values point to notes of the source that are not given here.

Tested on: SARS-CoV-2
Type: cell-based
Conditions: 30-minute contact time at 22 ± 2° C.; for Virus (CCID50/0.1 mL): average of 3 replicates ± standard deviation; for LRV (log reduction value): compared to the virus control

| SMILES | Virus (CCID50/0.1 mL) (1 μg/mL) | LRV (log reduction value) (1 μg/mL) | Virus (CCID50/0.1 mL) (5 μg/mL) | LRV (log reduction value) (5 μg/mL) | Virus (CCID50/0.1 mL) (25 μg/mL) | LRV (log reduction value) (25 μg/mL) | Virus (CCID50/0.1 mL) (100 μg/mL) | LRV (log reduction value) (100 μg/mL) | Virus (CCID50/0.1 mL) (35%) | LRV (log reduction value) (35%) |
| --- | --- | --- | --- | --- | --- | --- | --- | --- | --- | --- |
| CCCCCCCCOC(=O)CC[C@@H](C)[C@H]1CC[C@H]2[C@@H]3[C@H](OC(=O)CCN)C[C@@H]4C[C@H](OC(=O)CCN)CC[C@]4(C)[C@H]3C[C@H](OC(=O)CCN)[C@]12C [CSA-44HC1] | 4.4 ± 0.12 CCID50/0.1 mL | 0 log10 | 3.9 ± 0.17 CCID50/0.1 mL | 0.5 log10 | 0.8 ± 0.19 CCID50/0.1 mL | 3.6 log10 | 1.2 ± 0.94 CCID50/0.1 mL | 3.2 log10 | – | – |
| CCCCCCCCCCCCNCCC[C@@H](C)[C@H]1CC[C@H]2[C@@H]3[C@H](OCCCN)C[C@@H]4C[C@H](OCCCN)CC[C@]4(C)[C@H]3C[C@H](OCCCN)[C@]12C.Cl.Cl.Cl.Cl [CSA-131HC1] | 4.1 ± 0.40 CCID50/0.1 mL | 0.3 log10 | 4.1 ± 0.17 CCID50/0.1 mL | 0.3 log10 | 1.2 ± 0.54 CCID50/0.1 mL | 3.2 log10 | <1.7**** CCID50/0.1 mL | >2.7 log10 | – | – |
| CCO [Ethanol, reference compound] | – | – | – | – | – | – | – | – | 0.8 ± 0.23 CCID50/0.1 mL | 3.6 log10 |
